For this test, the system named is wild type cells. The experiment in a line: Reduction of cholesterol levels in wild type cells. It is filed as cell-based. As to conditions: with increasing concentration, FIG. 1A. On the procedure: The half maximal effective concentration (EC-50) for delta-tocopherol and five analogues was measured in wild type and NPC 3123 cells. […] Further, in NPC cells (FIG. 1B), the cholesterol level drop was substantial relative to the control (no delta-tocopherol).

In the case of `Cc1cc(O)cc2c1O[C@](C)(CCC[C@H](C)CCC[C@H](C)CCCC(C)C)CC2` [delta-tocopherol], the “cholesterol levels in wild type cells” value is “cholesterol levels dropped”.

The values are drawn from US10370348B2, “Tocopherol and tocopheryl quinone derivatives as correctors of lysosomal storage disorders” (The United States of America, as represented by the …, priority 2012, dated 2019).
